This note sets out measurements from PMC6934184, “Selective DNA-PKcs inhibition extends the therapeutic index of localized radiotherapy and chemotherapy” (The Journal of Clinical Investigation, 2019).

The target of this assay is T1, AMPK (A2/B2/G2) (Homo sapiens, UniProt P54646).
T1 construct: purchased Thermo Fisher Scientific (Life Technologies) SelectScreen
Nature of the assay: SelectScreen LanthaScreen. The conditions noted are these: read-out: % displacement. It counts as binding. The essentials: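 NU5455 was profiled across the SelectScreen Broad panel of kinase activity and binding assays. Z'LYTE reactions such as CSF1R ran at apparent Km ATP, while the Adapta CAMK1 assay used ATP listed as 10. Values are given as percent.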
A general note: Time-resolved FRET reads energy transfer from a long-lived donor to a nearby acceptor.

T1 sequence (P54646 whole entry): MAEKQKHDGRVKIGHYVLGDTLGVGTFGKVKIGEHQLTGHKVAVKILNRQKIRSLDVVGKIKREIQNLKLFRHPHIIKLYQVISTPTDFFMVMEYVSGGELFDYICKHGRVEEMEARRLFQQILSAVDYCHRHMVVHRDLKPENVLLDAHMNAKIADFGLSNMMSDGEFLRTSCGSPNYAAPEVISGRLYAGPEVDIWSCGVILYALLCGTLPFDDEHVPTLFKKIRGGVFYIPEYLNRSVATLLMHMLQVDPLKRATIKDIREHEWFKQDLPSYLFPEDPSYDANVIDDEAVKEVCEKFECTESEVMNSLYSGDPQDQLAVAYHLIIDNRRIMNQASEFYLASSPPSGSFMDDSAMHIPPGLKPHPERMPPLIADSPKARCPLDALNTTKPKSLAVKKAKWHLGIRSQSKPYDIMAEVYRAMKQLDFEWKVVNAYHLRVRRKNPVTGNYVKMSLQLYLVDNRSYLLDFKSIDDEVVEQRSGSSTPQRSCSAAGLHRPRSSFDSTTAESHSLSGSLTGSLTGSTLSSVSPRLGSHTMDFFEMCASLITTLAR
T1 sequence (O43741 whole entry partner): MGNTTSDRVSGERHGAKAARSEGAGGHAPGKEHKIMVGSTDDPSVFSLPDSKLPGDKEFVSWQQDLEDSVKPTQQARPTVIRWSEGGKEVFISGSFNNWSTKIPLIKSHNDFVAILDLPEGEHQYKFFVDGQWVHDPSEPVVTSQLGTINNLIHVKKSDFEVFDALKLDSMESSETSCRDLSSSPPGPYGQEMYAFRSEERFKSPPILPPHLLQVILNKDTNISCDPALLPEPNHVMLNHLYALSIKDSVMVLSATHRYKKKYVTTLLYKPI
T1 sequence (Q9UGJ0 whole entry partner): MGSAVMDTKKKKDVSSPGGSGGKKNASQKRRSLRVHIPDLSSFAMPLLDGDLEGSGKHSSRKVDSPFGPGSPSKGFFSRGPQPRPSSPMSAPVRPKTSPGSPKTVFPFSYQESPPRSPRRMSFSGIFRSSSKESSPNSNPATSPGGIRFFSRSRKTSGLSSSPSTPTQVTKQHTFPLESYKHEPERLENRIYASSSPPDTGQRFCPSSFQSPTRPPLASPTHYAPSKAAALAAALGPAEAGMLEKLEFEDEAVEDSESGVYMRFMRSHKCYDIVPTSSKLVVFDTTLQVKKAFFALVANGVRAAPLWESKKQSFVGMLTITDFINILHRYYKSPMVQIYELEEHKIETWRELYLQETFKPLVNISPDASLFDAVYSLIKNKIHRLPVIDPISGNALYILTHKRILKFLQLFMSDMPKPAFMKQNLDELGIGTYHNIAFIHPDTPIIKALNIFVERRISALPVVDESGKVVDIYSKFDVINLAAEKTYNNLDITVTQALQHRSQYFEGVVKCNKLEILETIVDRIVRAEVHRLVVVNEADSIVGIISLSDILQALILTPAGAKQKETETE

Take `CN(C(=O)CN1CCOCC1)c1ccc2sc3c(-c4cccc5c(=O)cc(N6CC7CCC(C6)O7)oc45)cccc3c2c1` [NU5455]: the inhibition at 1 µM was -2.6%.
